Experimental data from paper PMC8781960, “Structural Basis of 2-Phenylamino-4-phenoxyquinoline Derivatives as Potent HIV-1 Non-Nucleoside Reverse Transcriptase Inhibitors” (Molecules, 2022).
Marks after values point to notes of the source that are not given here.

What was measured:
[1] = target: T1, HIV-1 RT (Human immunodeficiency virus type 1 group M subtype B, UniProt P03366); test: HIV-1 RT inhibition assay (Roche RT kit, colorimetric ELISA); type: biochemical; conditions: for inhibition at 1 µM: read-out: Inhibitory activities (%) against HIV-1 RT
T1 construct: The reaction mixture consisted of template/primer complex, 2′-deoxy-nucleotide-5′-triphosphates (dNTPs), and RT enzyme in lysis buffer; purchased Roche Applied Science, Mannheim, Germany
Excerpt: The inhibition assay of HIV-1 RT was accomplished using the template/primer hybrid poly(A) × oligo(dT)15, digoxigenin (DIG)- and biotin-labeled nucleotides, an antibody to DIG that was conjugated to peroxidase (anti-DIG-POD), and the peroxidase substrate ABTS. The quantities of DIG- and biotin-labeled dUTP incorporated into DNA represent t HIV-1 RT activity. The HIV-RT inhibition assay was implemented using an RT assay kit (Roche Applied Science, Mannheim, Germany), and the procedures for assaying RT inhibition were performed as described in the kit protocol. […] The reaction mixture consisted of template/primer complex, 2′-deoxy-nucleotide-5′-triphosphates (dNTPs), and RT enzyme in lysis buffer with or without an inhibitor. […] The biotin-labeled dNTPs that were incorporated in the template bound to streptavidin because of the presence of RT. Unbound dNTPs were washed using a wash buffer, and anti-DIG-POD was added to the MTP. The DIG-labeled dNTPs incorporated in the template bound to the anti-DIG-POD antibody. Unbound anti-DIG-POD was also washed elaborately five times using a wash buffer. Finally, the peroxide substrate (ABST) was added to the MTP. A colored reaction product emerged during the cleavage of the substrate catalyzed by […]. The absorbance of the sample was measured at the optical density (OD) at 490 nm using the MTP (enzyme-linked immunosorbent assay [ELISA]) reader. The percentage inhibitory activities of the RT inhibitors were calculated by comparing with that of the sample without an inhibitor. The resulting color intensity was directly proportional to the RT activity. Percentage inhibitory values were calculated using the following formula: Inhibition (%) = [1–(OD value with RT and inhibitor−OD value without RT and inhibitors)/(OD value without inhibitors with RT−OD value without RT and inhibitors)] × 100.

[2] = tested on: MRC-5 (normal embryonic lung cell); test: In vitro cytotoxicity (MTT), normal cell line; conditions: for %C percentage cytotoxicity MRC-5: normal cell line, at 50 µg/mL, inactive (IC50 ≥ 50 µg/mL); for IC50: Homo sapiens, MRC5, 48 h, read-out: IC50 MRC-5
Method: (§1) Background control wells contained the same volume as the complete culture medium. […] Samples at various concentrations were added to the microplate and incubated for another 48 h. Cell viability was determined by 3(4,5-dimethylthiazol-2-yl)-2-5-diphenyl tetrazolium bromide (MTT) assay (Sig-ma-Aldrich). The reagent was dissolved in phosphate-buffered saline at 5 mg/mL and filtered to sterilize and remove the small amount of insoluble residue present in some batches of MTT. […] Subsequently, dimethyl sulfoxide (100 µL; Merck, Germany) was added to dissolve the resulting formazan by sonication. The plates were read on a microplate reader (Molecular Devices, CA, USA) using a test wavelength of 550 nm and a reference wavelength of 650 nm. XTT assay for suspension cells was used for MOLT-3 cells.

[3] = tested on: MOLT-3 (acute lymphoblastic leukemia); test: In vitro cytotoxicity (XTT); conditions: for IC50: Homo sapiens, MOLT-3, 48 h, read-out: IC50 MOLT-3; for %C percentage cytotoxicity MOLT-3: at 50 µg/mL, inactive (IC50 ≥ 50 µg/mL)
Method: as §1

[4] = tested on: MDA-MB-231 (hormone-independent breast cancer); test: In vitro cytotoxicity (MTT); conditions: for %C percentage cytotoxicity MDA-MB-231: at 50 µg/mL, inactive (IC50 ≥ 50 µg/mL); for IC50: Homo sapiens, MDA-MB-231, 48 h, read-out: IC50 MDA-MB-231
Method: as §1

[5] = tested on: A549 (lung carcinoma); test: In vitro cytotoxicity (MTT); conditions: for %C percentage cytotoxicity A549: at 50 µg/mL, inactive (IC50 ≥ 50 µg/mL); for IC50: Homo sapiens, A549, 48 h, read-out: IC50 A549
Method: as §1

[6] = tested on: S102 (Thai liver cancer); test: In vitro cytotoxicity (MTT); conditions: at 50 µg/mL; inactive (IC50 ≥ 50 µg/mL)
Method: as §1

[7] = tested on: HepG2 (hepatocarcinoma); test: In vitro cytotoxicity (MTT); conditions: for %C percentage cytotoxicity HepG2: at 50 µg/mL, inactive (IC50 ≥ 50 µg/mL); for IC50: Homo sapiens, HepG2, 48 h, read-out: IC50 HepG2
Method: as §1

[8] = tested on: HeLA (cervical carcinoma); test: In vitro cytotoxicity (MTT); conditions: for IC50: Homo sapiens, HeLa, 48 h, read-out: IC50 HeLA; for %C percentage cytotoxicity HeLA: at 50 µg/mL, inactive (IC50 ≥ 50 µg/mL)
Method: as §1

[9] = tested on: HL-60 (promyeloblast); test: In vitro cytotoxicity (MTT); conditions: for IC50: Homo sapiens, HL-60, 48 h, read-out: IC50 HL-60; for %C percentage cytotoxicity HL-60: at 50 µg/mL, inactive (IC50 ≥ 50 µg/mL)
Method: as §1

[10] = tested on: T47-D (hormone-dependent breast cancer); test: In vitro cytotoxicity (MTT); conditions: for %C percentage cytotoxicity T47-D: at 50 µg/mL, inactive (IC50 ≥ 50 µg/mL); for IC50: Homo sapiens, T47D, 48 h, read-out: IC50 T47-D
Method: as §1

[11] = tested on: HuCCA-1 (cholangiocarcinoma); test: In vitro cytotoxicity (MTT); conditions: for %C percentage cytotoxicity HuCCA-1: at 50 µg/mL, inactive (IC50 ≥ 50 µg/mL); for IC50: Homo sapiens, HuCC-A1, 48 h, read-out: IC50 HuCCA-1
Method: as §1

[12] = tested on: H69AR (lung cancer, multidrug resistant); test: In vitro cytotoxicity (MTT); type: cell-based, human; conditions: 48 h; for %C percentage cytotoxicity H69AR: human, 50 µg/mL
Method: Background control wells contained the same volume as the complete culture medium. […] The reagent was dissolved in phosphate-buffered saline at 5 mg/mL and filtered to sterilize and remove the small amount of insoluble residue present in some batches of MTT. […] Subsequently, dimethyl sulfoxide (100 µL; Merck, Germany) was added to dissolve the resulting formazan by sonication. The plates were read on a microplate reader (Molecular Devices, CA, USA) using a test wavelength of 550 nm and a reference wavelength of 650 nm.

| SMILES | inhibition at 1 µM [1] [%] | melting point [°C] | %C percentage cytotoxicity MRC-5 [2] | IC50 [3] [µM] | %C percentage cytotoxicity MDA-MB-231 [4] | %C percentage cytotoxicity A549 [5] | %C percentage cytotoxicity S102 [6] | %C percentage cytotoxicity HepG2 [7] | IC50 [8] [µM] | IC50 [9] [µM] | %C percentage cytotoxicity T47-D [10] | %C percentage cytotoxicity HuCCA-1 [11] | %C percentage cytotoxicity H69AR [12] | IC50 [4] [µM] | IC50 [5] [µM] | IC50 [7] [µM] | IC50 [11] [µM] | %C percentage cytotoxicity MOLT-3 [3] | %C percentage cytotoxicity HeLA [8] | %C percentage cytotoxicity HL-60 [9] | other results |
| --- | --- | --- | --- | --- | --- | --- | --- | --- | --- | --- | --- | --- | --- | --- | --- | --- | --- | --- | --- | --- | --- |
| Cc1cc(C#N)cc(C)c1Oc1cc(Nc2ccc(C#N)cc2)c2ccccc2n1 [Compound 8d, 2-(2′,6′-Dimethyl-4′-cyanophenoxy)-4-(4″-cyanophenyl)-aminoquinoline] | 34.5 ± 2.3 | 201.3 to 202 | %C = 15.5 ^c | 67.4 ± 3.1 | %C = 32.4 ^c | %C = 29.1 ^c | %C = 0.0 ^c | %C = 32.0 ^c | 104 ± 4.7 | 56.6 ± 4.7 | %C = 31.0 ^c | %C = 18.4 ^c | %C = 0.0 ^c | – | – | – | – | – | – | – | – |
| N#Cc1ccc(Nc2cc(Oc3ccc(C=O)cc3)nc3ccccc23)cc1 [Compound 8a, 2-(4′-formylphenoxy)-4-(4″-cyanophenyl)-aminoquinoline] | 29.6 ± 2.7 | 238.5 to 238.9 | – | 21.5 ± 3.3 | – | – | %C = 2.9 ^c | – | 112 ± 3.1 | 107 ± 1.4 | %C = 0.0 ^c | – | %C = 8.4 ^c | 118 ± 5.8 | 111 ± 5.6 | 85.3 ± 3.5 | 22.7 ± 1.9 | – | – | – | IC50 [2]: 119 ± 5.7 µM |
| O=Cc1ccc(Oc2cc(Oc3ccc(C=O)cc3)c3ccccc3n2)cc1 [Compound 4a, 2,4-di-(4′-formylphenoxy)-quinoline] | 17.3 ± 2.4 | 164.9 to 165.5 | – | 25.1 ± 2.6 | %C = 43.3 ^c | %C = 40.0 ^c | %C = 0.4 ^c | – | 104 ± 7.9 | 92.4 ± 3.1 | %C = 34.0 ^c | – | %C = 0.0 ^c | – | – | 90.9 ± 2.1 | 48.1 ± 1.7 | – | – | – | IC50 [2]: 84.3 ± 9.6 µM |
| Cc1cc(C=O)cc(C)c1Oc1cc(Nc2ccc(C#N)cc2)c2ccccc2n1 [Compound 8b, 2-(2′,6′-Dimethyl-4′-formylphenoxy)-4-(4″-cyanophenyl)-aminoquinoline] | 39.6 ± 1.5 | 200 to 201.3 | %C = 9.7 ^c | 22.3 ± 1.9 | – | %C = 37.0 ^c | %C = 0.0 ^c | – | 42.3 ± 2.7 | 34.9 ± 5.1 | %C = 38.0 ^c | %C = 43.0 ^c | %C = 6.0 ^c | 107 ± 3.2 | – | 106 ± 9.7 | – | – | – | – | – |
| Cc1cc(C=CC#N)cc(C)c1Oc1cc(Nc2ccc(C#N)cc2)c2ccccc2n1 [Compound 11b, 2-(4′-(2″-(E, Z)-cyanovinyl)-2′,6′-dimethyl-phenoxy)-4-(4″-cyanophenyl)-aminoquinoline] | 34.3 ± 2.6 | 180.7 to 182.3 | %C = 0.0 ^c | – | %C = 14.1 ^c | %C = 0.0 ^c | %C = 0.0 ^c | %C = 3.7 ^c | – | – | %C = 4.0 ^c | %C = 0.0 ^c | %C = 3.0 ^c | – | – | – | – | %C = 19.0 ^c | %C = 2.0 ^c | %C = 0.0 ^c | – |
| N#Cc1ccc(Nc2cc(Oc3ccc(C#N)cc3)nc3ccccc23)cc1 [Compound 8c, 2-(4′-cyanophenoxy)-4-(4″-cyanophenyl)-aminoquinoline] | 28.1 ± 3 | 187.5 to 188 | %C = 17.2 ^c | – | %C = 0.0 ^c | %C = 29.0 ^c | %C = 0.0 ^c | %C = 40.3 ^c | – | – | %C = 35.0 ^c | %C = 25.8 ^c | %C = 21.0 ^c | – | – | – | – | %C = 2.1 ^c | %C = 0.0 ^c | %C = 1.0 ^c | – |
| Cc1cc(C#N)cc(C)c1Oc1cc(Nc2ccc(C#N)cn2)nc2ccccc12 [Compound 6d, 4-(2′,6′-Dimethyl-4′-cyanophenoxy)-2-(5’’-cyanopyridin-2’’ylamino)quinoline] | 45.1 ± 1.5 | 229.4 to 230.3 | %C = 0.0 ^c | – | %C = 8.3 ^c | %C = 8.0 ^c | %C = 0.0 ^c | %C = 0.0 ^c | – | – | %C = 1.0 ^c | %C = 0.0 ^c | %C = 0.0 ^c | – | – | – | – | %C = 27.0 ^c | %C = 0.0 ^c | %C = 13.0 ^c | IC50 [1]: 1.22 µM; cytotoxicity toward normal embryonic lung (MRC-5) cells, in words [2]: no cytotoxicity |
| N#Cc1ccc(Oc2cc(Nc3ccc(C#N)cn3)nc3ccccc23)cc1 [Compound 6c, 4-(4′-cyanophenoxy)-2-(5″-cyanopyridin-2″ylamino)quinoline] | 27.6 ± 2.1 | 225.7 to 225.9 | – | 14.1 ± 0.4 | – | – | %C = 44.8 ^c | – | 67.7 ± 0.6 | – | – | – | – | 66.6 ± 3 | 14 ± 2.2 | 101.7 ± 0.7 | 22.9 ± 0.9 | – | – | %C = 9.0 ^c | IC50 [2]: 69.2 ± 12.4 µM; IC50 [10]: 47.1 ± 3.3 µM; IC50 ([12]; Homo sapiens, H69AR, mean ± standard error): 66.2 ± 2.4 µM |
| O=Cc1ccc(Oc2cc(-c3cc(Oc4ccc(C=O)cc4)c4ccccc4n3)nc3ccccc23)cc1 [Compound 7a, 4,4′-di-(4′-formylphenoxy)-2,2′-biquinoline] | 22.9 ± 1.2 | 288.7 to 289.3 | %C = 33.9 ^c | 74.2 ± 6.3 | – | – | %C = 17.6 ^c | – | 88 ± 4.3 | – | – | – | %C = 20.0 ^c | 74.1 ± 5.3 | 69.5 ± 3.3 | 69.8 ± 11.8 | 88.2 ± 4.4 | – | – | %C = 25.0 ^c | IC50 [10]: 96.1 ± 3.3 µM |
| Cc1cc(C#N)cc(C)c1Oc1cc(Oc2c(C)cc(C#N)cc2C)c2ccccc2n1 [Compound 4d, 2,4-di-(2′,6′-Dimethyl-4′-cyanophenoxy)-quinoline] | 40.3 ± 3.3 | 201.8 to 202.4 | %C = 26.9 ^c | – | – | – | %C = 31.5 ^c | – | – | – | – | – | %C = 38.0 ^c | 92.5 ± 5 | 55.5 ± 5.7 | 92.2 ± 6.8 | 83.5 ± 11.1 | %C = 13.0 ^c | %C = 40.0 ^c | %C = 23.0 ^c | IC50 [10]: 55.2 ± 1.5 µM |
